According to patent US6737425B1, “N,N-substituted cyclic amine derivatives” (Eisai Co., Ltd., priority 1998, dated 2004):

Tested on: mice in a formalin test
Assay: Antalgic effect (I) on mice in a formalin test
Assay type: in vivo
Conditions: for average left hind leg-licking time, Mean: formalin 5 minutes later, measured for 5 minutes
Experimental: Antalgic Effect (I) on Mice in a Formalin Test
The antalgic action of the typical example of the compound of the present invention (Example 1) when intravenously administered was examined in the formalin test using mice (3).
ddy Mice (male, 4-week-old) purchased from Nippon SLC Ltd. were used in the experiment.
20.4 mg of the test compound was weighed, and 10.2 ml of 5.28% mannitol was added thereto to prepare 2 mg/ml (20 mg/kg) solution. Then, 3.8 ml of 5.28% mannitol was added to 3.8 ml of the 2 mg/ml solution to prepare 1 mg/ml (10 mg/kg) solution. Finally, 2.5 ml of 5.28% mannitol was added to 2.5 ml of the 1 mg/ml solution to prepare 0.5 mg/ml (5 mg/kg) solution. This test compound was weighed and prepared on the day when the experiment was conducted.
30 μl of commercial 35.0 to 38.0% formaldehyde was added to 970 μl physiological saline. The resulting solution was used as 3% formalin. Because the indicated purity of this commercial formaldehyde is 35.0 to 38.0%, the 3% formalin presently prepared and used is accurately 2.84 to 3.08% formalin.
The treatment group in this test consisted of 4 groups in total, that is, a control group, a 5 mg/kg test compound administration group, a 10 mg/kg administration group, and a 20 mg/kg administration group, and each group consisted of 5 animals.
The control group was given 0.1 ml of 5.28% mannitol per 10 g of the body weight. The test compound was administered at each concentration (0.5 mg/ml, 1 mg/ml, and 2 mg/ml) in an volume of 0.1 ml per 10 g of the body weight into the 5 mg/kg group, 10 mg/kg group and 20 mg/kg group, respectively.
5.28% mannitol was administered via the tail vein into each group given the compound of the present invention or into the control group, and the animals were placed in a transparent plastic observation cage. 5 minutes later, 20 μl of 3% formalin was subcutaneously administered into the bottom of the left hind leg of each mouse. The duration of the behavior of mouse's licking the left hind leg after administration of formalin was measured for 5 minutes and used as an indication of pain. The duration was expressed in second.
In the significant test, parametric one-way layout analysis of variance was conducted and then Dunnet-type multiple comparison was made (*: 0.01<p<0.05, **: p<0.01, vs. the control group). For the test, a statistical analysis assistant system with SAS 6.12 (SAS Institute Japan Ltd., Tokyo) integrated in it was used.

Structure (SMILES): CC(C)C(C#N)(CCCN1CCN(CCOc2ccc(F)cc2)CC1)c1ccccc1 (stereo not shown) [Example 1, 1-[(4-Cyano-5-methyl-4-phenyl)hexyl]-4-[2-(4-fluorophenoxy)ethyl]piperazine]
- average left hind leg-licking time, Mean (5 mg/kg i.v. (tail vein)): 49.4 s
- licking time compared to the control group (5 mg/kg, 10 mg/kg and 20 mg/kg i.v.): statistically significant reduction in licking time
- average left hind leg-licking time, Mean (10 mg/kg i.v. (tail vein)): 23.6 s
- average left hind leg-licking time, Mean (20 mg/kg i.v. (tail vein)): 2.2 s
